pIC50: −log10 of the molar value. Activity calls are given as the source filed them.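 The calls were made as follows: active = compounds whose IC50 for blocking RGS4-driven GTP breakdown by the G-protein falls below a set limit; inactive = IC50 above a set limit.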
These compounds were tested against Regulator of G-protein signaling 4 (Rattus norvegicus) (UniProt P49799) (assay: inhibitors of RGS4 GAP activity on Galphai1, confirmation, biochemical, rat RGS4, steady-state, receptor-independent, malachite green (AID 588552)). Settings: RGS4-stimulated Galphai1 GTPase, malachite green phosphate absorbance.
Sequence of Regulator of G-protein signaling 4 (Rattus norvegicus) (P49799 whole entry, looked up): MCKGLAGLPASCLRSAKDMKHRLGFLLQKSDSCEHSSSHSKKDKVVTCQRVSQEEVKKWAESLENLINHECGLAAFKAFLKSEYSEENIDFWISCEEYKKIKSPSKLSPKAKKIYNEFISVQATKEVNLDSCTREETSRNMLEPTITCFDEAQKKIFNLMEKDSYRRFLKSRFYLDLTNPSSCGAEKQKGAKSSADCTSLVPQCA

SMILES | IC50 | pIC50
COc1ccc2cc(C3C(C#N)=C(N)OC(C)=C3C(C)=O)c(Cl)nc2c1 (stereo not drawn) | > 110 µM (inactive) | –
CCOC(=O)/C=C/C(=O)OCC(=O)N1CCN(C(=O)c2ccco2)CC1 | > 110 µM (inactive) | –
Cc1cc2nc(CS)[nH]c2cc1C | > 110 µM (inactive) | –
Cc1cccc(N2C(=O)/C(=C/c3ccc(C(=O)O)cc3)c3ccccc3C2=O)c1 | – | 4.50
O=C1/C(=C\c2ccc(Cl)c(Cl)c2)N2CCC1CC2 | > 110 µM (inactive) | –
Cc1cc(-c2n[nH]c(=S)n2/N=C/C(Br)=C/c2ccccc2)n[nH]1 | – | 5.40
CC(C)(C)c1ccc(Cn2nnc3c(=O)[nH]c(C4CCN(C(=O)Cc5cccs5)CC4)nc32)cc1 | > 110 µM (inactive) | –
CC(C)OP(=O)(OC(C)C)/C(C=O)=N\Nc1ccc([N+](=O)[O-])cc1 | > 110 µM (inactive) | –
CN1C/C(=C/c2ccncc2)C(=O)/C(=C/c2ccncc2)C1 | – | 4.43
COc1cccc(/C=C/C(=O)c2c(O)cc(C)oc2=O)c1O | > 110 µM (inactive) | –
COc1ccc(C(C[N+](=O)[O-])c2c(-c3ccccc3)cc3ccccn23)cc1OC (stereo not drawn) | > 110 µM (inactive) | –
O=C(O)c1ccc(/C=C/C(=O)c2ccc3c(c2)OCCCO3)cc1 | – | 4.46
COC(=O)CSc1[nH]c2ccccc2c1[N+](=O)[O-] | – | 4.26
CN(C)c1ccc(C(C[N+](=O)[O-])c2c(N)n(C)c(=O)n(C)c2=O)c(F)c1C#N (stereo not drawn) | > 110 µM (inactive) | –
O=C(N/N=C/c1cc([N+](=O)[O-])ccc1O)NC12CC3CC(CC(C3)C1)C2 | > 110 µM (inactive) | –
Cn1c(OCc2ccco2)nc2c1c(=O)n(Cc1ccc(Cl)c(Cl)c1)c(=O)n2C | > 110 µM (inactive) | –
Cc1csc(NC(=O)COCC(=O)O)c1-c1nc2ccccc2s1 | > 110 µM (inactive) | –
O=C1N=c2ccccc2=C1c1c(O)n(-c2cccc(F)c2)[nH]c1=O | – | 4.25
CCOC(=O)C1=C(O)/C(=C\c2cccc(OC)c2)N=C1C | > 110 µM (inactive) | –
Cc1ccc(C(C2=C(O)CC(C)(C)CC2=O)C2C(=O)CC(C)(C)CC2=O)o1 (stereo not drawn) | > 110 µM (inactive) | –

SMILES | IC50 | pIC50
O=C(CCNc1ccc(F)cc1)c1ccco1 | > 110 µM (inactive) | –
CN1CCc2cc(O)cc3c2[C@H]1Cc1ccc(O)c(O)c1-3 | – | 5.01
O=C(O)c1ccc(/C=C2\COc3ccccc3C2=O)cc1 | – | 5.29
CN(C)C(=O)COc1ccc(C(=O)/C=C/c2cccnc2)cc1 | – | 4.23
NC(=O)N/N=C/c1c(Sc2nnnn2-c2ccccc2)nc2ccccn2c1=O | – | 4.26
CC1=NOC(=O)/C1=C/c1ccc(O)cc1 | > 110 µM (inactive) | –
CC1=NN(c2ccc(C(=O)O)cc2)C(=O)/C1=C\c1ccc(OC(=O)c2cccs2)cc1 | – | 4.93
Oc1c(Cl)cc(Cl)c2c1NCCC2 | – | 4.42
O=C1NC(=S)N(c2ccccc2F)C(=O)/C1=C\c1cccs1 | – | 4.45
CCCN1CCc2cc(O)cc3c2[C@H]1Cc1ccc(O)c(O)c1-3 | – | 4.96
Cc1c(NC(=O)c2coc(=O)c(Br)c2)c(=O)n(-c2ccccc2)n1C | > 110 µM (inactive) | –
CCOCCCNC(=O)/C(C#N)=C\c1ccc([N+](=O)[O-])o1 | – | 4.97
COc1ccc(OC)c(N2C(=O)NC(=O)/C(=C/c3ccc([N+](=O)[O-])s3)C2=O)c1 | – | 4.74
O=C(/C=C/c1ccc([N+](=O)[O-])cc1)c1ccco1 | > 110 µM (inactive) | –
CN1C(=O)/C(=C\c2ccc(Br)s2)C(=O)NC1=S | – | 4.83
N#C/C(=C/c1ccc(Cl)c([N+](=O)[O-])c1)c1ccccn1 | > 110 µM (inactive) | –
COc1cc2c(cc1O)C(SC)=NC(C)(C)C2 | – | 4.50
Cc1ccc(/C=C2\C(=O)NC(=S)N(c3ccc(F)cc3)C2=O)s1 | – | 4.96
O=[N+]([O-])c1ccc(O)c(/C=N/NC(=S)Nc2ccc(Cl)cc2Cl)c1 | > 110 µM (inactive) | –
CCOCCCNC(=O)/C(C#N)=C\c1ccc(Cl)c([N+](=O)[O-])c1 | > 110 µM (inactive) | –

SMILES | IC50 | pIC50
CN1C(=O)S/C(=C\c2ccccc2OCc2ccc(C(=O)O)cc2)C1=O | – | 4.12
O=C1C=C(NC2=CC3OC(c4ccccc4)OCC3OC2=O)CCC1 (stereo not drawn) | – | 4.47
Cc1nc2c(=O)n(C)c(=O)n(C)c2nc1Cl | > 110 µM (inactive) | –
Cc1ccccc1OCc1nnc(SCC(=O)Nc2ccc3c(c2)oc2ccccc23)n1C | > 110 µM (inactive) | –
O=C1/C(=C/c2ccncc2)CCC/C1=C\c1ccncc1 | – | 5.00
Cc1ccc(CNC(=O)c2cn(C3CCCCC3)c(=O)c3c2c2ccccc2n3C)o1 | > 110 µM (inactive) | –
Cc1ccc(C(C2C(=O)CC(C)(C)CC2=O)C2C(=O)CC(C)(C)CC2=O)s1 | – | 4.04
O=C(O)c1ccc2c(c1)C(=O)N(c1cccc(C(=O)/C=C/c3ccccc3)c1)C2=O | – | 4.63
Cc1ccc(/C=C/C(=O)N2CC(C)CC(C)C2)o1 (stereo not drawn) | – | 4.78
O=C(/C=C/c1ccncc1)c1ccc2c(c1)OCCO2 | – | 4.51
N[C@@H](Cc1cc(Br)c(O)c(Br)c1)C(=O)O | > 110 µM (inactive) | –
COc1ccc(NC(=O)/C(Cl)=C(/Cl)S(=O)Cc2ccccc2)cn1 (stereo not drawn) | – | 6.00
O=C/C=C/c1c(-c2ccccc2)cc2oc3ccccc3cc1-2 | > 110 µM (inactive) | –
COC(=O)CSc1[nH]c2cc(C)ccc2c1[N+](=O)[O-] | > 110 µM (inactive) | –
O=C1/C(=C\c2ccc(Cl)cc2Cl)N2CCC1CC2 | > 110 µM (inactive) | –
COc1ccc(NC(=O)/C(C#N)=C\c2ccc(Sc3nncn3C)c([N+](=O)[O-])c2)cc1 | > 110 µM (inactive) | –
CN(C)c1oc(-c2ccccc2[N+](=O)[O-])nc1C#N | – | 4.73
COc1ccc(-c2csc(NC3OC(=O)c4c3ccc(OC)c4OC)n2)cc1OC (stereo not drawn) | > 110 µM (inactive) | –

Source: PubChem BioAssay AID588552 (Johns Hopkins Ion Channel Center, 2011)
